Data set [1] can be described thus: Stability in human plasma assessed as parent compound remaining level at 5 uM remaining after 4 hrs. The class given is ADME, cell-free. The note with it: read-out: Stabilty.
Data set [2] deals with T1, Relaxin receptor 1 (Homo sapiens, UniProt Q9HBX9).
T1 sequence (Q9HBX9 whole entry): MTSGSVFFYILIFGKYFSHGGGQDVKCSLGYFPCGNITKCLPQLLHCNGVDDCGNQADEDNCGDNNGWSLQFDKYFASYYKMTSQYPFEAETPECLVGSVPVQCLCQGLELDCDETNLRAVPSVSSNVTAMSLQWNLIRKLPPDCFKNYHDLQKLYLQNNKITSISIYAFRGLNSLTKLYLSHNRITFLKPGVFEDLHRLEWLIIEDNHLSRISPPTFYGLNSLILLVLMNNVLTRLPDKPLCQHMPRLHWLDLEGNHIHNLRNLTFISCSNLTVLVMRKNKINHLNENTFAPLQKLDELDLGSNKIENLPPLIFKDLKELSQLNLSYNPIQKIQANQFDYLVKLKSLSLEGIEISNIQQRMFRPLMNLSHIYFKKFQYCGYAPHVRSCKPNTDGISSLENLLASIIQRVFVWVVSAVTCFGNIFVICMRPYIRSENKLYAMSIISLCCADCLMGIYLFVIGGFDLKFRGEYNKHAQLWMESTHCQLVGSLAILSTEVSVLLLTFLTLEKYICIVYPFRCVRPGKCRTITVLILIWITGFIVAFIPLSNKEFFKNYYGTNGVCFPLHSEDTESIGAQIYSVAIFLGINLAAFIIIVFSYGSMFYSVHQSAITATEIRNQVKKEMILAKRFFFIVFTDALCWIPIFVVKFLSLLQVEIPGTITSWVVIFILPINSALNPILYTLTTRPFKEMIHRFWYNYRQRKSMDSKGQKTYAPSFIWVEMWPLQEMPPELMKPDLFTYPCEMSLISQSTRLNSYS
The data set can be described thus: Agonist activity at RXFP1 endogenously expressed in human OVCAR-5 cells assessed as increase in IBMX-induced cAMP accumulation pretreated with IBMX for 40 mins followed by compound addition and measured after 30 mins by HTRF assay. It is filed as functional, cell-based. On the technique in general: Changes in cAMP serve as a functional read-out for many G protein-coupled receptors.

Data set [3] addresses T2, Relaxin receptor 1 (Homo sapiens) (UniProt Q9HBX9).
T2 sequence (whole entry): T1 sequence (Q9HBX9 whole entry)
The data set can be described thus: Agonist activity at RXFP1 endogenously expressed in human OVCAR-5 cells assessed as increase in IBMX-induced cAMP accumulation pretreated with IBMX for 40 mins followed by compound addition and measured after 30 mins by HTRF assay relative to relaxin. It is filed as functional, cell-based. The note with it: filed as agonist.

Data set [4] is described as follows: Aqueous solubility of compound in acetate buffer at pH 4.5 measured after 24 hrs by UPLC analysis. The class given is physicochemical.
Data set [5] can be described thus: Aqueous solubility of compound in phosphate buffer at pH 7.4 measured after 24 hrs by UPLC analysis. The class given is physicochemical.
Data set [6] in a line: Stability in rat plasma assessed as parent compound remaining level at 5 uM remaining after 4 hrs. It is filed as ADME, cell-free. The note with it: read-out: Stabilty.

Values after ≈ are worked out from the molar mass of the structure shown. *1 amine or outer side, *2 acyl side, *3 side chain or, on linkers, in order; H or OH if unused. Where a SMILES comes first, the peptide text is derived from it. [ ]: non-standard residue; d: D form. β2hAla(2S) = C[C@@H](CN[*:1])C(=O)[*:2]; X4 = CCCC[C@H](O[*:1])C(=O)[*:2]; hLys = NCCCCC[C@H](N)C(=O)O; Orn = NCCC[C@H](N)C(=O)O

The EC50 is the midpoint of the concentration-response curve. As a reminder, the Emax is the greatest response seen or fitted, relative to the assay's reference. The solubility is how much of the substance goes into solution per volume. A higher solubility goes with much dissolved substance. As to `CCCC[C@H](OC(=O)CNC(=O)[C@H](CCC(=O)O)NC(=O)[C@@H](C)CNC(=O)[C@@H](C)CNC(=O)[C@@H](NC(=O)[C@H](CCCCCNC(C)=O)NC(=O)[C@@H](C)CNC(=O)[C@@H](C)CNC(=O)[C@H](CCCCN)NC(=O)[C@H](C)NC(=O)[C@H](CCCNC(=N)N)NC(=O)[C@@H](NC(=O)[C@H](CCCCN)NC(=O)[C@H](CCC(=O)O)NC(=O)[C@H](CCCNC(=N)N)NC(=O)CNC(=O)[C@H](CCC(=O)O)NC(=O)[C@H](CC(C)C)NC(C)=O)C(C)C)[C@@H](C)CC)C(=O)N[C@@H](CO)C(=O)N[C@H](C(=O)N[C@@H](Cc1c[nH]c2ccccc12)C(=O)N[C@@H](CO)C(=O)NC[C@H](C)C(=O)N[C@@H](CCCNC(=N)N)C(=O)N[C@@H](CCCCN)C(=O)N[C@@H](CCCN)C(=O)N[C@@H](CCCCCNC(C)=O)C(N)=O)[C@@H](C)O` (Ac-LEGREKVRAK[β2hAla(2S)][β2hAla(2S)][hLys](Ac)I[β2hAla(2S)][β2hAla(2S)]EG[X4]STWS[β2hAla(2S)]RK[Orn][hLys](Ac)-NH2), the remaining at 4 h, 5 µM in data set [1] was 74%; in data set [6], 60%. Further, the EC50 in data set [2] is 18 nM. The Emax in data set [3] was 93%. In addition, the solubility at 24 h in data set [4] and in data set [5] was 4000 µg/mL (≈ 1210 µM) in each case.

For the compound `CC[C@H](C)[C@H](NC(=O)[C@H](CCC(N)=O)NC(=O)[C@H](C)NC(=O)[C@H](CCCNC(=N)N)NC(=O)[C@@H](NC(=O)[C@H](CCCCN)NC(=O)[C@H](CCC(=O)O)NC(=O)[C@H](CCCNC(=N)N)NC(=O)CNC(=O)[C@H](CCC(=O)O)NC(=O)[C@H](CC(C)C)NC(=O)[C@H](CCCCN)NC(=O)[C@@H](NC(=O)[C@@H](NC(C)=O)C(C)C)[C@@H](C)CC)C(C)C)C(=O)NC[C@H](C)C(=O)NC[C@H](C)C(=O)N[C@@H](CCC(=O)O)C(=O)NCC(=O)N[C@@H](CCSC)C(=O)N[C@@H](CO)C(=O)N[C@@H](CCCCN)C(=O)N[C@@H](Cc1c[nH]c2ccccc12)C(=O)N[C@@H](CO)C(=O)N[C@@H](CCCCN)C(=O)N[C@@H](CCCNC(=N)N)C(=O)N[C@@H](CCCCN)C(=O)N[C@@H](CCCCN)C(N)=O` (HELM PEPTIDE1{[ac].V.I.K.L.E.G.R.E.K.V.R.A.Q.I.[C[C@@H](CN[*:1])C(=O)[*:2]].[C[C@@H](CN[*:1])C(=O)[*:2]].E.G.M.S.K.W.S.K.R.K.K.[am]}$$$$V2.0), the values for the remaining at 4 h, 5 µM in data set [1] and in data set [6] were 58% and 37%, respectively. In data set [2], the EC50 was 17 nM. Moreover, in data set [3], the maximum response (Emax) was determined as 99%. For the same compound, the solubility at 24 h amounted to 5100 µg/mL (≈ 1600 µM) in data set [4] and 5300 µg/mL (≈ 1660 µM) in data set [5].

As to `CC[C@H](C)[C@H](NC(=O)[C@H](CCC(N)=O)NC(=O)[C@H](C)NC(=O)[C@H](CCCNC(=N)N)NC(=O)[C@@H](NC(=O)[C@H](CC(C)C)NC(=O)[C@H](CCC(=O)O)NC(=O)[C@H](CCCNC(=N)N)NC(=O)CNC(=O)[C@H](CO)NC(=O)[C@H](CC(C)C)NC(=O)[C@H](CCCCN)NC(=O)[C@@H](NC(=O)[C@@H](NC(C)=O)C(C)C)[C@@H](C)CC)C(C)C)C(=O)NC[C@H](C)C(=O)N[C@H](C(=O)N[C@@H](CO)C(=O)NCC(=O)N[C@@H](CCSC)C(=O)N[C@@H](CO)C(=O)N[C@H](C(=O)N[C@@H](Cc1c[nH]c2ccccc12)C(=O)N[C@@H](CO)C(=O)N[C@@H](CCCCN)C(=O)N[C@@H](CCCNC(=N)N)C(=O)N[C@@H](CCCCN)C(=O)N[C@@H](CCCCN)C(N)=O)[C@@H](C)O)[C@@H](C)CC` (HELM PEPTIDE1{[ac].V.I.K.L.S.G.R.E.L.V.R.A.Q.I.[C[C@@H](CN[*:1])C(=O)[*:2]].I.S.G.M.S.T.W.S.K.R.K.K.[am]}$$$$V2.0), the remaining at 4 h, 5 µM in data set [1] is 54%; in data set [6], 37%. Also, the EC50 in data set [2] was found to be 202 nM. Moreover, the Emax in data set [3] is 90%. Moreover, the solubility at 24 h in data set [4] turned out to be 5700 µg/mL (≈ 1840 µM); in data set [5], 4600 µg/mL (≈ 1480 µM).

In the case of `CC[C@H](C)[C@H](NC[C@@H](C)CNC(=O)[C@@H](NC(=O)[C@H](CCC(N)=O)NC(=O)[C@H](C)NC(=O)[C@H](CCCNC(=N)N)NC(=O)[C@@H](NC(=O)[C@H](CCCCN)NC(=O)[C@H](CCC(=O)O)NC(=O)[C@H](CCCNC(=N)N)NC(=O)CNC(=O)[C@H](CCC(=O)O)NC(=O)[C@H](CC(C)C)NC(=O)[C@H](CCCCN)NC(=O)[C@@H](NC(=O)[C@@H](NC(C)=O)C(C)C)[C@@H](C)CC)C(C)C)[C@@H](C)CC)C(=O)N[C@@H](CCC(=O)O)C(=O)NCC(=O)N[C@@H](CCSC)C(=O)N[C@@H](CO)C(=O)N[C@@H](CCCCN)C(=O)N[C@@H](Cc1c[nH]c2ccccc12)C(=O)N[C@@H](CO)C(=O)N[C@@H](CCCCN)C(=O)N[C@@H](CCCNC(=N)N)C(=O)N[C@@H](CCCCN)C(=O)N[C@@H](CCCCN)C(N)=O`, the figures for the remaining at 4 h, 5 µM in data set [1] and in data set [6] were 79% and 29%, respectively. Further, the EC50 in data set [2] turned out to be 54 nM. Further, in data set [3], the Emax turned out to be 95%. Moreover, the solubility at 24 h came out at 4800 µg/mL (≈ 1490 µM) in data set [4] and 3800 µg/mL (≈ 1180 µM) in data set [5].

Regarding `CC[C@H](C)[C@H](NC(=O)[C@H](CCC(N)=O)NC(=O)[C@H](C)NC(=O)[C@H](CCCNC(=N)N)NC(=O)[C@@H](NC(=O)[C@H](CCCCN)NC(=O)[C@H](CCC(=O)O)NC(=O)[C@H](CCCNC(=N)N)NC(=O)CNC(=O)[C@H](CCC(=O)O)NC(=O)[C@H](CC(C)C)NC(=O)[C@H](CCCCN)NC(=O)[C@@H](NC(=O)[C@@H](NC(=O)[C@H](CCC(=O)O)NC(=O)[C@H](CCC(=O)O)NC(C)=O)C(C)C)[C@@H](C)CC)C(C)C)C(=O)NC[C@H](C)C(=O)NC[C@H](C)C(=O)N[C@@H](CCC(=O)O)C(=O)NCC(=O)N[C@@H](CCSC)C(=O)N[C@@H](CO)C(=O)N[C@H](C(=O)N[C@@H](Cc1c[nH]c2ccccc12)C(=O)N[C@@H](CO)C(=O)NC[C@H](C)C(=O)N[C@@H](CCCNC(=N)N)C(=O)N[C@@H](CCCCN)C(=O)N[C@@H](CCCCN)C(N)=O)[C@@H](C)O` (Ac-EEVIKLEGREKVRAQI[β2hAla(2S)][β2hAla(2S)]EGMSTWS[β2hAla(2S)]RKK-NH2), the remaining at 4 h, 5 µM amounted to 80% in data set [1] and 60% in data set [6]. For the same compound, the EC50 in data set [2] amounted to 17.8 nM. In data set [3], the Emax came to 99%. The solubility at 24 h in data set [4] came to 2800 µg/mL (≈ 827 µM); in data set [5], 2400 µg/mL (≈ 709 µM).

As for `CC[C@H](C)[C@H](NC(=O)[C@H](CCC(N)=O)NC(=O)[C@H](C)NC(=O)[C@H](CCCNC(=N)N)NC(=O)[C@@H](NC(=O)[C@H](CCCCN)NC(=O)[C@H](CCC(=O)O)NC(=O)[C@H](CCCNC(=N)N)NC(=O)CNC(=O)[C@H](CCC(=O)O)NC(=O)[C@H](CC(C)C)NC(C)=O)C(C)C)C(=O)NC[C@H](C)C(=O)NC[C@H](C)C(=O)N[C@@H](CCC(=O)O)C(=O)NCC(=O)N[C@@H](CCSC)C(=O)N[C@@H](CO)C(=O)N[C@H](C(=O)N[C@@H](Cc1c[nH]c2ccccc12)C(=O)N[C@@H](CO)C(=O)NC[C@H](C)C(=O)N[C@@H](CCCNC(=N)N)C(=O)N[C@@H](CCCCN)C(=O)N[C@@H](CCCCN)C(N)=O)[C@@H](C)O` (Ac-LEGREKVRAQI[β2hAla(2S)][β2hAla(2S)]EGMSTWS[β2hAla(2S)]RKK-NH2), the remaining at 4 h, 5 µM in data set [1] came out at 93%; in data set [6] it was 101%. For the same compound, the EC50 in data set [2] worked out at 14 nM. In data set [3], the Emax was 99%. Also, the values for the solubility at 24 h in data set [4] and in data set [5] were 6100 µg/mL (≈ 2190 µM) and 5800 µg/mL (≈ 2080 µM), respectively.

The values are drawn from ChEMBL document CHEMBL4732190, “Identification of Potent and Long-Acting Single-Chain Peptide Mimetics of Human Relaxin-2 for Cardiovascular Diseases” (J Med Chem, 2021).
